# Data reported in the supplement of paper PMC10307832.
# How the values were obtained:
# Test in all cases: relative viability (nuclei count vs DMSO), 5 days (fraction); higher = more cells survive
# ABC-1 = test system: ABC-1
# In short: (§1)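 Five library-drug doses in √10 steps were combined with a fixed anchor-drug dose, or a single drug was given alone, by pin tool to lung cancer cell lines in 1536-well plates the day after seeding. Nuclei were stained and counted after 5 days. Relative viability is the nuclei count in treated wells over that in vehicle wells, taken as the median of duplicate plates.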
# CAL-12T = test system: CAL-12T
# In short: as §1
# COR-L 105 = test system: COR-L 105
# In short: as §1
# ChaGo-K-1 = test system: ChaGo-K-1
# In short: as §1
# EMC-BAC-2 = test system: EMC-BAC-2
# In short: as §1
# EPLC-272H = test system: EPLC-272H
# In short: as §1
# HCC-15 = test system: HCC-15
# In short: as §1
# HCC-78 = test system: HCC-78
# In short: as §1
# HOP-62 = test system: HOP-62
# In short: as §1
# LXF-289 = test system: LXF-289
# In short: as §1
# NCI-H1666 = test system: NCI-H1666
# In short: as §1
# NCI-H1755 = test system: NCI-H1755
# In short: as §1
compound,measurement,setting,value
NC(=O)Nc1cc(-c2cccc(F)c2)sc1C(=O)N[C@H]1CCCNC1 [AZD7762] + C[C@@H](Oc1cc(-c2cnn(C3CCNCC3)c2)cnc1N)c1c(Cl)ccc(F)c1Cl [Crizotinib] (partner 1 µM),relative viability,ABC-1; first compound 0.01 µM,1.1
same,relative viability,ABC-1; first compound 0.03162 µM,1.56
same,relative viability,ABC-1; first compound 0.1 µM,0.842
same,relative viability,ABC-1; first compound 0.3162 µM,0.49
same,relative viability,ABC-1; first compound 1 µM,0.13
same,relative viability,CAL-12T; first compound 0.01 µM,0.735
same,relative viability,CAL-12T; first compound 0.03162 µM,0.554
same,relative viability,CAL-12T; first compound 0.1 µM,0.486
same,relative viability,CAL-12T; first compound 0.3162 µM,0.33
same,relative viability,CAL-12T; first compound 1 µM,0.105
same,relative viability,COR-L 105; first compound 0.01 µM,0.877
same,relative viability,COR-L 105; first compound 0.03162 µM,0.772
same,relative viability,COR-L 105; first compound 0.1 µM,0.591
same,relative viability,COR-L 105; first compound 0.3162 µM,0.406
same,relative viability,COR-L 105; first compound 1 µM,0.271
same,relative viability,ChaGo-K-1; first compound 0.01 µM,1.21
same,relative viability,ChaGo-K-1; first compound 0.03162 µM,1.04
same,relative viability,ChaGo-K-1; first compound 0.1 µM,1.14
same,relative viability,ChaGo-K-1; first compound 0.3162 µM,1.07
same,relative viability,ChaGo-K-1; first compound 1 µM,0.64
same,relative viability,EMC-BAC-2; first compound 0.01 µM,0.852
same,relative viability,EMC-BAC-2; first compound 0.03162 µM,0.718
same,relative viability,EMC-BAC-2; first compound 0.1 µM,0.777
same,relative viability,EMC-BAC-2; first compound 0.3162 µM,0.797
same,relative viability,EMC-BAC-2; first compound 1 µM,0.706
same,relative viability,EPLC-272H; first compound 0.01 µM,0.895
same,relative viability,EPLC-272H; first compound 0.03162 µM,1.11
same,relative viability,EPLC-272H; first compound 0.1 µM,0.967
same,relative viability,EPLC-272H; first compound 0.3162 µM,0.859
same,relative viability,EPLC-272H; first compound 1 µM,0.75
same,relative viability,HCC-15; first compound 0.01 µM,0.948
same,relative viability,HCC-15; first compound 0.03162 µM,0.776
same,relative viability,HCC-15; first compound 0.1 µM,0.818
same,relative viability,HCC-15; first compound 0.3162 µM,0.774
same,relative viability,HCC-15; first compound 1 µM,0.825
same,relative viability,HCC-78; first compound 0.01 µM,0.364
same,relative viability,HCC-78; first compound 0.03162 µM,0.35
same,relative viability,HCC-78; first compound 0.1 µM,0.317
same,relative viability,HCC-78; first compound 0.3162 µM,0.326
same,relative viability,HCC-78; first compound 1 µM,0.255
same,relative viability,HOP-62; first compound 0.01 µM,0.786
same,relative viability,HOP-62; first compound 0.03162 µM,1.03
same,relative viability,HOP-62; first compound 0.1 µM,1.17
same,relative viability,HOP-62; first compound 0.3162 µM,1.1
same,relative viability,HOP-62; first compound 1 µM,1.16
same,relative viability,LXF-289; first compound 0.01 µM,0.788
same,relative viability,LXF-289; first compound 0.03162 µM,0.8
same,relative viability,LXF-289; first compound 0.1 µM,0.828
same,relative viability,LXF-289; first compound 0.3162 µM,0.864
same,relative viability,LXF-289; first compound 1 µM,0.816
same,relative viability,NCI-H1666; first compound 0.01 µM,1.58
same,relative viability,NCI-H1666; first compound 0.03162 µM,1.16
same,relative viability,NCI-H1666; first compound 0.1 µM,1.23
same,relative viability,NCI-H1666; first compound 0.3162 µM,0.993
same,relative viability,NCI-H1666; first compound 1 µM,0.695
same,relative viability,NCI-H1755; first compound 0.01 µM,0.901
same,relative viability,NCI-H1755; first compound 0.03162 µM,0.872
